We go through two molecules from US6576622B1, “Drug combination for the treatment of viral diseases” (University of Medicine & Dentistry of New Jersey, priority 1995, dated 2003).

Series [1] has as its system HIV-gpt. As to the kind of experiment: HIV-gpt colony formation after infection of HeLa-T4 cells in the presence of antiretroviral agents. The series is classed as cell-based. The settings on record: for Number of colonies +AZT: colonies by day 10.
Series [2] has as its system HIV-LacZ. The series is classed as cell-based.
The nature of series [3]: HPLC analysis of phosphorylated AZT metabolites in clones incubated with 3H-AZT. Type of series: in vitro ADME. Conditions: 3H-AZT for 4 hours, HPLC. How it is done:
Cell lines were incubated with ^3H-thymidine or ^3H-AZT for 4 hours. Dried methanol extracts of the clones were redissolved in 60 μof distilled water and centrifuged to remove undissolved material. Twenty microliters of the sample was injected and separated on a 10×100 mm Rainin Hydropore anion exchange column. The nucleosides were eluted from the column with a linear gradient of potassium phosphate (5 mM to 1 M, pH4.0) at a flow rate of 1 ml/min. The samples were collected (0.5 ml), mixed with 5 ml Packard scintillation fluid, and quantitated using a liquid scintillation counter. Phosphorylated derivatives of thymidine and AZT were identified with authentic standards.
Pool sizes were determined by incubation of cells with ^3H-AZT for 4 hours followed by cellular extraction and HPLC. The numbers are expressed as pmoles/10^6 cells. The numbers in parentheses represent the percentage of total radioactive species in that pool.

The subject of series [4] is R116 cell line. As to the kind of experiment: MTT cytotoxicity assay in R116 cells. The series is classed as cell-based. Conditions: persistently resistant clone R116, three days. On the procedure: (§1) Three days later, drug cytotoxicity was quantitated with a standard MTT assay in which the uptake and metabolism of 3-[4,5-dimethylthiazol-2-yl]2,5-dephenyltetrazolium bromide (MTT) by cells was measured (14). The amount of formazan produced in 2 hours was determined by dissolving the product in 100% DMSO and then measuring the absorbance at 570 nm.
(§2) HeLa-T4 is the parental cell line.
(§3) Cells sensitive, parental HT4 (open circle), S1 (solid square), Spool (solid circle) and refractory, R116 (open square) were grown in the presence of various concentrations of FUdR. Three days latter, cell viability was determined by the MTT reduction method.
A general note: Tetrazolium dyes change colour on reduction, which living cells bring about.

For series [5], the system named is HIV-1IIIB. As to the kind of experiment: HIV-1IIIB infection of S1 and R116 cells with AZT and FUdR (RT activity). Type of series: cell-based. Conditions: 0.1 μM AZT. On the procedure:
Infected cells were isolated in gpt selective media and expanded into cell lines. […] Cell line S1 is a control cell line.
Cell free supernatants were assayed for RT activity every two days. Results are the mean of triplicate cultures. Standard deviations were <15%.

Series [6] concerns HIV-1 IIIB. As to the kind of experiment: HIV-1 IIIB infection of Jurkat JE6.1 cell populations, AZT IC50 with FUdR (RT activity). The series is classed as cell-based. The settings on record: for IC50: Human immunodeficiency virus 1, IIIB, Jurkat, 144 h, concentration of AZT for 50% inhibition of RT activity at day 6, F = μM FUdR. How it is done:
HIV-1 production in infected, cultures was determined by a ^32P-based assay as described (34). RT activity was determined by […] of ^32P bound to the DE81 paper by using a Molecular Dynamics phosphorimager. The results are reported as pixel units per microliter of the reaction mixture.
In these experiments, three populations of cells were studied.

The subject of series [7] is MLV-neo. As to the kind of experiment: MLV-neo colony formation in the presence of antiviral agents. The series is classed as cell-based, Moloney Leukemia virus. The settings on record: Hela-T4, AZT 10 uM, DDI 50 uM, DDC 10 uM, D4T 50 uM, control 9050. On the procedure: Production of recombinant HIV-gpt has been described elsewhere (26). The amphotropic cell line PA317 was transfected with the recombinant murine retrovirus pLXSN (36) and was used as the source of the recombinant MLV-neo virus. Stock preparations of HIV-1IIIB were harvested from H9 cells by the “shake off method” (13). Stock virus infectivity was determined by end-point dilution in MT-2 cells (32). Virus induced cytopathic effect was scored 7 days post-infection and the TCID50 was calculated with the Reed and Muench equation (33).
To confirm this high rate of infection in the absence of genetic drug resistance, we used several other recombinant viruses and host cells. […] A high rate of infection of Jurkat cells in the presence of d4T has also been seen.
Table 5. HIV-gpt produced in COS cells by transfection with plasmids (plasmid derived) is compared with HIV-gpt produced by, rescue from H9/HIV-gpt cell line after infection with HIV-IIIB and cells infected with MLV-neo.
(§4) Table 6. Colony formation and persistent resistance after Hela-T4 cell infection with MLV-neo virus in the presence and absence of various antiviral agents.

Series [8] deals with recombinant HIV, recombinant MLV, or replication-competent HIV. Type of series: cell-based.
Excerpt: The presence of a selectable marker gene in the recombinant HIV allowed the isolation of cells infected by the recombinant viruses in the presence of d4T. These cells were characterized by infection with both additional recombinant viruses and by replication-competent viruses.
as §4

Series [9] concerns HIV-1IIIB. Conditions: same AZT concentration as for the persistently resistant clone.
Series [10] in a line: MTT cytotoxicity assay in R116 cells. The series is classed as cell-based. The settings on record: human, R116 cell line, three days, FIG. 8, read-out: ED50 (cytotoxicity). On the procedure: as §1, §2, §3
Series [11] in a line: in vitro. The settings on record: human.

A word on the IC50: it is the point on the concentration scale where inhibition reaches its midpoint. A lower IC50 goes with greater potency in that assay. As to `Cc1cn([C@H]2C[C@H](N=[N+]=[N-])[C@@H](CO)O2)c(=O)[nH]c1=O` [AZT, 3′-Azido-3′-deoxythymidine], the Number of colonies in [1] (HeLa-T4, plasmid derived HIV-gpt (COS cells), AZT 10 μM, DDI 50 μM, D4T 50 μM, no drug control 8800) came to 12. Further, the “Frequency of colony formation in the presence of AZT” value in series [1] (HeLa-T4 cells, 10 μM AZT, HIV-gpt by rescue with HIV-1) was 5.0 × 10^−4; in series [1] (HeLa-T4 cells, 10 μM AZT, plasmid-derived (COS cells) HIV-gpt), 5.2 × 10^−4. The “Number of colonies +AZT” value in [1] (HeLa-T4 cells, 10 μM AZT, HIV-gpt by rescue with HIV-1, −AZT 1.8 × 10^4) was found to be 9; in [1] (HeLa-T4 cells, 10 μM AZT, plasmid-derived (COS cells) HIV-gpt, −AZT 3.1 × 10^4) it was 16. Further, the “prevalence of colony formation after infection in the presence of AZT” value in series [1] (HeLa-T4 cells, 10 μM AZT, similar with the two preparations of HIV-gpt) is ~5×10^−4. Besides, the “inhibition of HIV-LacZ infection” value in [2] (10 μM AZT, nine of twelve cell lines, like wild type HeLa-T4 cells) is given as “complete inhibition of infection”. In addition, the Frequency is on record as 3.4 × 10^−4 in series [2] (frequency of persistently resistant colonies, HeLa-T4, plasmid derived HIV-gpt) and 2.2 × 10^−4 in series [8] (frequency of persistently resistant colonies, Hela-T4, MLV-neo). Further, the values for the concentration in cells in [3] (R116 (“persistently resistant”) cell line) and in series [3] (S1 (sensitive) cell line) were 0.0155 pmoles/10^6 cells and 0.0206 pmoles/10^6 cells, respectively. Further, in series [4], the “cytotoxic concentration that killed 50%” value was “greater than 1 mM”. For the same molecule, the “HIV replication in the presence of drug” value in [5] (R116 cell line refractory to AZT, FIG. 7B) was “significant HIV replication”. Besides, the antiviral efficacy result in [5] (control S1 cell line, multiplicity of infection of 1, FIG. 7A) is given as “potent antiviral efficacy”. The values for the IC50 in series [6] (JE6.1AZTR cells (refractory to AZT)), in [6] (JE6.1Con cells (control)) and in series [6] (JE6.1 cells) were 0.6 µM, 0.2 µM and 0.3 µM, respectively. For the same molecule, the “increase AZT IC50” value in [6] (JE6.1AZTR entire population) amounted to 2 fold. Moreover, the No. of colonies in [7] was 12. In series [8], the “subset of cells persistently refractory to d4T that were also refractory to the antiviral effects of AZT” value is “approximately 20%”. Moreover, the “inhibition of infection of control cells by replication-competent HIV” value in [9] is recorded as “virtually complete inhibition”.

Take `O=c1[nH]c(=O)n([C@H]2C[C@H](O)[C@@H](CO)O2)cc1F` [FUdR, 2′-deoxy-5-fluorouridine]: the EC50 at 3 days in series [10] stood at 700 nM; in series [11], 7000 nM. The “antiviral activity when used by itself” value in series [6] (in all of these studies) is on record as “moderate antiviral activity”.
